This is an account of results in patent US12612410B2 (CHILDREN'S HOSPITAL MEDICAL CENTER, priority 2020, dated 2026).

This test has as its target T1, FLT3 ITD, F691L (Homo sapiens, UniProt P36888, F691L, form not given).
T1 construct: fused on or other part: DNA tag for qPCR detection (T7 phage fusion or DNA-tagged protein from HEK-293 cells)
T1 sequence (P36888 1-993 F691L): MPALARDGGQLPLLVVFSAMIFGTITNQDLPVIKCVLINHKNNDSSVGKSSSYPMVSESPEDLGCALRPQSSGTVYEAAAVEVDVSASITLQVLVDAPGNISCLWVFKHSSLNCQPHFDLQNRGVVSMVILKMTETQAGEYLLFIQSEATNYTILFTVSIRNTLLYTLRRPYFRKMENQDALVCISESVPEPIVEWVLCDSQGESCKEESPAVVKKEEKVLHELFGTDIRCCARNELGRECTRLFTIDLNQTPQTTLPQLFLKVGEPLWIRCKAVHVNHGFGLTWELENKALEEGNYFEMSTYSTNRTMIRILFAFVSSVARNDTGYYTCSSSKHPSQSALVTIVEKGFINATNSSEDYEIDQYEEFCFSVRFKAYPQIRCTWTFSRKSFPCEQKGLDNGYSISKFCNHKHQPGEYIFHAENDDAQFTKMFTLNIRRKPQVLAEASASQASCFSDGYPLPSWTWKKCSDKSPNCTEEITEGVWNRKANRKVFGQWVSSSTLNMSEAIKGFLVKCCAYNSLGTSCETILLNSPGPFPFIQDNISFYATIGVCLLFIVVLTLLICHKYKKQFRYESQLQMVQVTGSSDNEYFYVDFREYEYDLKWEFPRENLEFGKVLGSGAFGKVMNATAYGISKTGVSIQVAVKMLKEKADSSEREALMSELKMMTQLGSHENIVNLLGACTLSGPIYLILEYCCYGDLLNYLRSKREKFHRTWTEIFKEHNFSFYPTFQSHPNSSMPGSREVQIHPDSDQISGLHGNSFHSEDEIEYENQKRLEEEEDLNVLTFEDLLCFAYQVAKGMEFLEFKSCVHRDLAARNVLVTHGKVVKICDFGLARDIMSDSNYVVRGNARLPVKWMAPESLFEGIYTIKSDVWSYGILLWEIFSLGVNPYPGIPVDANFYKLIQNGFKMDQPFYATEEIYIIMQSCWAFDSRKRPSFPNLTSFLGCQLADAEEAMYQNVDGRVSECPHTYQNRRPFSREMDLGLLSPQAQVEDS
The test is described as follows: DiscoverX KINOMEscan competition binding, FLT3 ITD, F691L. An excerpt: Kinase binding data were obtained for various exemplary compounds prepared according to Examples 1-24 using the DiscoverX KINOMVIEscan® active site-directed competition binding site-directed assay protocol described below. […] As a result, the data report thermodynamic interaction affinities (Kd values), rather than IC50 values that are dependent on ATP concentrations. The assay uses a DNA-tagged version of the protein kinase, and an immobilized ligand bound to a solid support. Compounds that directly or indirectly prevent kinase binding to the immobilized ligand reduce the amount of kinase captured on the solid support, which is detected using an ultra-sensitive qPCR method. Affinity constants reported from the assay have been reported to be independent of the immobilized ligand used that is coupled to the solid support (See supplemental information in Fabian, M. A. et. al., (2005) Nat. Biotechnol. 23, 329-336; Wodicka, L. M. et. al., (2010) Chem. Biol. 17, 1241-1249.)
Kinase-tagged T7 phage strains were prepared in an E. coli host derived from the BL21 strain. E. coli were grown to log-phase and infected with T7 phage and incubated with shaking at 32° C. until lysis. The lysates were centrifuged and filtered to remove cell debris. The remaining kinases were produced in HEK-293 cells and subsequently tagged with DNA for qPCR detection. Streptavidin-coated magnetic beads were treated with biotinylated small molecule ligands for 30 minutes at room temperature to generate affinity resins for kinase assays. The liganded beads were blocked with excess biotin and washed with blocking buffer (SeaBlock (Pierce), 1% BSA, 0.05% Tween 20, 1 mM DTT) to remove unbound ligand and to reduce non-specific binding. Binding reactions were assembled by combining kinases, liganded affinity beads, and test compounds in 1× binding buffer (20% SeaBlock, 0.17×PBS, 0.05% Tween 20, 6 mM DTT). Test compounds were prepared as 111× stocks in 100% DMSO. Kds were determined using an 11-point 3-fold compound dilution series with three DMSO control points. All compounds for Kd measurements are distributed by acoustic transfer (non-contact dispensing) in 100% DMSO. The compounds were then diluted directly into the assays such that the final concentration of DMSO was 0.9%. All reactions were performed in polypropylene 384-well plates. Each was a final volume of 0.02 mL. The assay plates were incubated at room temperature with shaking for 1 hour and the affinity beads were washed with wash buffer (1×PBS, 0.05% Tween 20). The beads were then re-suspended in elution buffer (1×PBS, 0.05% Tween 20, 0.5 μM nonbiotinylated affinity ligand) and incubated at room temperature with shaking for 30 minutes. The kinase concentration in the eluates was measured by qPCR.
Binding constants (Kds) were calculated with a standard dose-response curve using the Hill equation. The Hill Slope was set to −1. Curves were fitted using a non-linear least square fit with the Levenberg-Marquardt algorithm.

For the molecule `CC1(c2cn3c(-c4cccc(N[C@H]5CNC[C@@H]5F)n4)cnc3cn2)CC1` [Compound 1, N-((3S,4S)-4-fluoropyrrolidin-3-yl)-6-(6-(1-methylcyclopropyl)imidazo[1,2-a]pyrazin-3-yl)pyridin-2-amine], the Kd stood at 0.11 nM.

For the molecule `CC1(c2cn3c(-c4cccc(N[C@@H]5CCNC5)n4)cnc3cn2)CC1` [Compound 3, (R)-6-(6-(1-methylcyclopropyl)imidazo[1,2-a]pyrazin-3-yl)-N-(pyrrolidin-3-yl)pyridin-2-amine], the Kd was 0.071 nM. Consider `CC1(c2cn3c(-c4cccc(N[C@H]5CNCC56CC6)n4)cnc3cn2)CC1` [Compound 5, (R)-N-(6-(6-(1-methylcyclopropyl)imidazo[1,2-a]pyrazin-3-yl)pyridin-2-yl)-5-azaspiro[2.4]heptan-7-amine], for which the affinity, expressed as Kd, was 0.023 nM.

As to `FC(F)(F)C1(c2cn3c(-c4cccc(N[C@@H]5CCNC5)n4)cnc3cn2)CC1` [Compound 10, (R)-N-(pyrrolidin-3-yl)-6-(6-(1-(trifluoromethyl)cyclopropyl)imidazo[1,2-a]pyrazin-3-yl)pyridin-2-amine], the affinity, expressed as Kd, was 0.3 nM. Take `FC(F)c1cn2c(-c3cccc(N[C@H]4CNC[C@@H]4F)n3)cnc2cn1` [Compound 16, 6-(6-(difluoromethyl)imidazo[1,2-a]pyrazin-3-yl)-N-((3S,4S)-4-fluoropyrrolidin-3-yl)pyridin-2-amine]: binding was put at a Kd of 0.32 nM.

Molecule `FC(F)c1cn2c(-c3cccc(N[C@H]4CNCC[C@@H]4F)n3)cnc2cn1` [Compound 25, 6-(6-(difluoromethyl)imidazo[1,2-a]pyrazin-3-yl)-N-((3S,4S)-4-fluoropiperidin-3-yl)pyridin-2-amine] came in with a Kd of 0.074 nM. With `CC(C)(O)c1cn2c(-c3cccc(N[C@@H]4CCCNC4)n3)cnc2cn1` [Compound 30, (R)-2-(3-(6-(piperidin-3-ylamino)pyridin-2-yl)imidazo[1,2-a]pyrazin-6-yl)propan-2-ol], the Kd was determined as 1.8 nM. This Kd lies about 24-fold higher than the previous one. For the molecule `CC(C)(O)c1cn2c(-c3cccc(N[C@H]4CNCC[C@@H]4F)n3)cnc2cn1` [Compound 31, 2-(3-(6-(((3S,4S)-4-fluoropiperidin-3-yl)amino)pyridin-2-yl)imidazo[1,2-a]pyrazin-6-yl)propan-2-ol], the Kd worked out at 0.49 nM.

In turn, `FC(F)(F)COc1cn2c(-c3cccc(N[C@@H]4CCNC4)n3)cnc2cn1` [Compound 38, (R)-N-(pyrrolidin-3-yl)-6-(6-(2,2,2-trifluoroethoxy)imidazo[1,2-a]pyrazin-3-yl)pyridin-2-amine] gave a Kd of 0.75 nM. This Kd is about 1.5-fold higher than that of the molecule before. Take `F[C@H]1CNC[C@@H]1Nc1cccc(-c2cnc3cnc(C4CC4)cn23)n1` [Compound 50, 6-(6-cyclopropylimidazo[1,2-a]pyrazin-3-yl)-N-((3S,4S)-4-fluoropyrrolidin-3-yl)pyridin-2-amine]: binding was characterised by a dissociation constant (Kd) of 0.1 nM. In the case of `Cn1cc(-c2cn3c(-c4cccc(N[C@H]5CNC[C@@H]5F)n4)cnc3cn2)cn1` [Compound 52, N-((3S,4S)-4-fluoropyrrolidin-3-yl)-6-(6-(1-methyl-1H-pyrazol-4-yl)imidazo[1,2-a]pyrazin-3-yl)pyridin-2-amine] it was 0.062 nM.
